From US9833445B2, “5-deutero-2,4-thiazolidinedione derivatives and compositions comprising and methods of using the same” (DeuteRx, LLC, priority 2013, dated 2017)

Assays:
[1] = In vitro stability (D/H exchange, enantiomerization, degradation) in human plasma; format: in vitro ADME; details: 37° C.; for half-life: human, plasma (K3EDTA), calculated half-life
Protocol: (§1) (+)-5-({p-[2-(5-ethylpyridin-2-yl)-2-oxoethoxy]phenyl}methyl)-1,3-thiazolidine-2,4-dione, (−)-5-({p-[2-(5-ethylpyridin-2-yl)-2-oxoethoxy]phenyl}methyl)-1,3-thiazolidine-2,4-dione, rac-5-({p-[2-(5-ethylpyridin-2-yl)-2-oxoethoxy]phenyl}methyl)-(5-^2H))-1,3-thiazolidine-2,4-dione (>98% deuterium at C-5 of the 1,3-thiazolidine-2,4-dione moiety; 50:50 racemic mixture of (+)- and (−)-deuterated enantiomers) were incubated in CD-1 mouse plasma (K3EDTA as anticoagulant) or human plasma (K3EDTA as anticoagulant) at 37° C. in duplicates. Aliquots (50 μL) were removed at t=0, 0.0833, 0.25, 0.5, 1, 2, 4, 8, and 16 hours and added to micro centrifuge tubes containing 10 μL of 5% w/v zinc sulfate heptahydrate in water. Samples were frozen and stored until the study was complete. After thawing on ice, 10 μL of internal standard (ISTD) spiking solution (d4-pioglitazone in acetonitrile/water 1:1) were added followed by 250 μL of methyl t-butyl ether (MTBE). A 100 μL aliquot of the organic layer was evaporated after homogeneization and reconstituted in 100 μL of 95:5 acetonitrile/0.1% formic acid in water (v/v).
(§2) The samples were analyzed semi-quantitatively by LC/MS-MS with elution on a chiral column (Daicel ChiralPak ID-3) for the separation of enantiomers (isocratic method of 5:95 v/v 0.1% formic acid in water and acetonitrile). Peak areas for the protonated and deuterated enantiomers were calculated and normalized to the area of the ISTD. Peak areas for the deuterated enantiomers (+)-5-({p-[2-(5-ethylpyridin-2-yl)-2-oxoethoxy]phenyl}methyl)-(5-2H)-1,3-thiazolidine-2,4-dione and (−)-5-({p-[2-(5-ethylpyridin-2-yl)-2-oxoethoxy]phenyl}methyl)-(5-^2H)-1,3-thiazolidine-2,4-dione were further corrected for the isotopic peak of the corresponding protonated enantiomer, (+)- and (−)-5-({p-[2-(5-ethylpyridin-2-yl)-2-oxoethoxy]phenyl}methyl)-1,3-thiazolidine-2,4-dione respectively, if present. Corrected data were analyzed and plotted using Microsoft Excel 2013 (Microsoft Corp, Redmond, Wash.) and the Excel Solver.
(§3) Scheme 3 illustrates the possible reactions in a solution of a deuterated racemate. The deuterium at the chiral center of both enantiomers, d+ and d−, can be depleted by D/H exchange to give both protonated enantiomers, h+ and h− with rate constants kD++, kD+−, kD−+, kD−. At the same time, the protonated enantiomers h+ and h−, can exchange, with enantiomerization rate constants k+− and k−+. All four compounds can also degrade with potentially different degradation rate constants kh+d, kh−d, kd+d, kd−d for enantiomers h+, h−, d+, and d−, respectively.
(§4) Human plasma stability data and mouse plasma stability data were analyzed independently. Concurrent analysis of the data for h+, h−, and deuterated racemate was performed. Calculated concentrations were obtained through numerical approximation of differential equations (1) and (2) for the stability studies of h+ and h- and equations (3) to (6) for the stability study of deuterated racemate (50:50 d+:d−) by the Euler method (equation (7)). The step between calculated time points was minimized in order to minimize the local error (proportional to the square of the step size) and the global error (proportional to the step size). […] Data analysis was performed in Microsoft Excel 2013, using the Solver Generalized Reduced Gradient Nonlinear method with central derivatives to minimize the sum of sums of weighted Δ^2, square of difference between ISTD-normalized experimental data and calculated value, divided by the calculated value.
(§5) [formula] [formula] [formula] [formula] where [h+], [h−], [d+], [d−] are the concentrations on both protonated and deuterated enantiomers, k+− and k−+ are the rate constants for the enantiomerization reactions h+ to h− and h− to h+ respectively, kD++, kD+−, kD−+, and kD− are the rate constants for the D/H exchange reactions d+ or d− to h+ or h−, and kd is the rate constant for the degradation of all four compounds. […]

[2] = In vitro stability (D/H exchange, enantiomerization, degradation) in CD-1 mouse plasma; format: in vitro ADME; details: 37° C.; for half-life: CD-1, mouse, plasma (K3EDTA), calculated half-life
Protocol: as §1, §2, §3, §4, §5

[3] = read-out: t1/2 degradation (converted)
[4] = read-out: t1/2 enantiomerization +− (h+ to h−) (converted)
[5] = read-out: t1/2 enantiomerization −+ (h− to h+) (converted)

k d (rate constant, degradation; assumed equal for all four compounds) ([1]; fitted to Equations 1 to 6) | half-life [1, 3] | k d (rate constant, degradation; assumed equal for all four compounds) ([2]; fitted to Equations 1 to 6) | half-life [2, 3] | k +− (rate constant, enantiomerization h+ to h−) ([1]; fitted to Equations 1 to 6) | half-life [1, 4] | k +− (rate constant, enantiomerization h+ to h−) ([2]; fitted to Equations 1 to 6) | half-life [2, 4] | k −+ (rate constant, enantiomerization h− to h+) ([1]; fitted to Equations 1 to 6) | half-life [1, 5] | k −+ (rate constant, enantiomerization h− to h+) ([2]; fitted to Equations 1 to 6) | half-life [2, 5] | SMILES
1.05e-06 s⁻¹ | 184 h | 4.25e-06 s⁻¹ | 45.4 h | – | – | – | – | – | – | – | – | [2H]C1(Cc2ccc(OCC(=O)c3ccc(CC)cn3)cc2)SC(=O)NC1=O (racemic) [d-rac, rac-5-({p-[2-(5-ethylpyridin-2-yl)-2-oxoethoxy]phenyl}methyl)-(5-^2H)-1,3-thiazolidine-2,4-dione]
1.05e-06 s⁻¹ | 184 h | 4.25e-06 s⁻¹ | 45.4 h | 0.308 h⁻¹ | 2.2 h | 0.504 h⁻¹ | 1.4 h | – | – | – | – | CCc1ccc(C(=O)COc2ccc(CC3SC(=O)NC3=O)cc2)nc1 (single isomer, unassigned; (+)) [h+, (+)-5-({p-[2-(5-ethylpyridin-2-yl)-2-oxoethoxy]phenyl}methyl)-1,3-thiazolidine-2,4-dione]
– | – | – | – | – | – | – | – | 0.359 h⁻¹ | 1.9 h | 0.594 h⁻¹ | 1.2 h | CCc1ccc(C(=O)COc2ccc(CC3SC(=O)NC3=O)cc2)nc1 (single isomer, unassigned; (-)) [h−, (−)-5-({p-[2-(5-ethylpyridin-2-yl)-2-oxoethoxy]phenyl}methyl)-1,3-thiazolidine-2,4-dione]
